Measurements as given in publication PMC11823630, “In vitro potentiation of tetracyclines in Pseudomonas aeruginosa by RW01, a new cyclic peptide” (Antimicrobial Agents and Chemotherapy, 2024).
Converted amounts (≈) assume the structure as drawn.

What was measured:
P. aeruginosa 125A = assay: MIC, CLSI broth microdilution in BD Phoenix AST Broth; assay type: cell-based, Pseudomonas aeruginosa; settings: strain 125A; for MIC: Pseudomonas aeruginosa, agent alone, 37°C, 18–22 h, three biological replicates
Experimental: (§1) MIC for RW01 was also tested.
(§2) FIC of RW01 (FICRW01)=MIC of RW01 in combination/MIC of RW01 alone,FIC of antibiotic (FICATB)=MIC of ATB in combination/MIC of ATB alone,FICI=FICRW01 +FICATB.
(§3) FICI was interpreted as follows: synergistic effect if FICI is ≤0.5; additive effect if 0.5 < FICI ≤ 1.0; indifferent effect if 1.0 < FICI ≤ 2.0; and finally, antagonistic effect if FICI is >2.0. The average FICI considering the antibiotic MIC (no growth in any of the replicates) at different concentrations of RW01 was calculated ([28]).

P. aeruginosa 125B = assay: as above; assay type: cell-based, Pseudomonas aeruginosa; settings: strain 125B; for MIC: Pseudomonas aeruginosa, agent alone, 37°C, 18–22 h, three biological replicates
Experimental: as §1, §2, §3

P. aeruginosa 41A = assay: as above; assay type: cell-based, Pseudomonas aeruginosa; settings: Pseudomonas aeruginosa; strain 41A; agent alone; 37°C, 18–22 h; three biological replicates
Experimental: as §1, §2, §3

P. aeruginosa 41B = assay: as above; assay type: cell-based, Pseudomonas aeruginosa; settings: Pseudomonas aeruginosa; strain 41B; agent alone; 37°C, 18–22 h; three biological replicates
Experimental: as §1, §2, §3

P. aeruginosa PAO1 = assay: as above; assay type: cell-based, Pseudomonas aeruginosa; settings: Pseudomonas aeruginosa, PAO1, strain PAO1; agent alone; 37°C, 18–22 h; three biological replicates; read-out: MIC
Experimental: as §1, §2, §3

P. aeruginosa PAOUW = assay: as above; assay type: cell-based, Pseudomonas aeruginosa; settings: Pseudomonas aeruginosa, strain PAOUW; agent alone; 37°C, 18–22 h; three biological replicates; read-out: MIC
Experimental: as §1, §2, §3

P. aeruginosa PAOUW∆oprF = assay: as above; assay type: cell-based, Pseudomonas aeruginosa; settings: Pseudomonas aeruginosa, strain PAOUWΔoprF; agent alone; 37°C, 18–22 h; three biological replicates
Experimental: as §1, §2, §3

P. aeruginosa PAOΔmexR = assay: as above; assay type: cell-based, Pseudomonas aeruginosa; settings: Pseudomonas aeruginosa
Experimental: as §1, §2, §3

P. aeruginosa PAOΔmexZ = assay: as above; assay type: cell-based, Pseudomonas aeruginosa; settings: Pseudomonas aeruginosa, strain PAOΔmexZ; agent alone; 37°C, 18–22 h; three biological replicates
Experimental: as §1, §2, §3

P. aeruginosa PAOΔoprM = assay: as above; assay type: cell-based, Pseudomonas aeruginosa; settings: Pseudomonas aeruginosa
Experimental: as §1, §2, §3

P. aeruginosa PAO1, WT = assay: MIC, Sensititre custom plate; assay type: cell-based; settings: Pseudomonas aeruginosa, PAO1, read-out: MIC, Sensititre
Experimental: (§4) Selection of resistant mutants was performed for minocycline with and without RW01 in three independent replicates for wild-type P. aeruginosa reference strain PAO1. Tubes containing Mueller-Hinton broth (MHB) were inoculated and incubated for 24 h at 37°C. Afterward, 1/100 dilution of each tube was incubated at 37°C in MHB to late-exponential growth phase, measured by spectrophotometry at OD600. […] A control plate without antibiotic was included as inoculum control. After overnight incubation, colony counting of each treatment was performed to analyze the generation of resistant population. The mutant prevention concentration (MPC) was defined as the lowest concentration of antibiotic yielding no growth of resistant mutants. Selected mutants were checked for susceptibility profiles by using a Sensititre custom plate (Thermo Fisher Scientific, Massachusetts, USA) for Gram-negative bacteria, following the manufacturer’s instructions.

[1] = test system: PAO1 mutant MIN16_1, nalD(T43P); assay: MIC, Sensititre custom plate; assay type: cell-based; settings: Pseudomonas aeruginosa, PAO1, read-out: MIC, Sensititre
Experimental: as §4

[2] = test system: PAO1 mutant MIN16_2, nalC(aa9∆4), pilQ(nt46∆1); assay: MIC, Sensititre custom plate; assay type: cell-based; settings: Pseudomonas aeruginosa, PAO1, read-out: MIC, Sensititre
Experimental: as §4

[3] = test system: PAO1 mutant MIN16_3, nfxB(nt79∆14), pilB(N349K); assay: MIC, Sensititre custom plate; assay type: cell-based; settings: Pseudomonas aeruginosa, PAO1, read-out: MIC, Sensititre
Experimental: as §4

[4] = test system: PAO1 mutant MIN16_4, nalC(T50P), pilM(Q62X); assay: MIC, Sensititre custom plate; assay type: cell-based; settings: Pseudomonas aeruginosa, PAO1, read-out: MIC, Sensititre
Experimental: as §4

[5] = test system: PAO1 mutant MIN1_RW01_1, pmrB(Y98N); assay: MIC, Sensititre custom plate; assay type: cell-based; settings: Pseudomonas aeruginosa, PAO1, read-out: MIC, Sensititre
Experimental: as §4

[6] = test system: PAO1 mutant MIN1_RW01_2, mexR(G58E), pilB(G326D), hutC(Y181X); assay: MIC, Sensititre custom plate; assay type: cell-based; settings: Pseudomonas aeruginosa, PAO1, read-out: MIC, Sensititre
Experimental: as §4

[7] = test system: PAO1 mutant MIN1_RW01_3, pmrB(V215L); assay: MIC, Sensititre custom plate; assay type: cell-based; settings: Pseudomonas aeruginosa, PAO1, read-out: MIC, Sensititre
Experimental: as §4

[8] = test system: PAO1 mutant MIN2_RW01_1, pmrB(V215L); assay: MIC, Sensititre custom plate; assay type: cell-based; settings: Pseudomonas aeruginosa, PAO1, read-out: MIC, Sensititre
Experimental: as §4

[9] = test system: PAO1 mutant MIN2_RW01_2, pmrB(M292T); assay: MIC, Sensititre custom plate; assay type: cell-based; settings: Pseudomonas aeruginosa, PAO1, read-out: MIC, Sensititre
Experimental: as §4

[10] = test system: PAO1 mutant MIN2_RW01_3, parS(V152A); assay: MIC, Sensititre custom plate; assay type: cell-based; settings: Pseudomonas aeruginosa, PAO1, read-out: MIC, Sensititre
Experimental: as §4

[11] = test system: PAO1 mutant MIN2_RW01_4, pmrB(M292T); assay: MIC, Sensititre custom plate; assay type: cell-based; settings: Pseudomonas aeruginosa, PAO1, read-out: MIC, Sensititre
Experimental: as §4

[12] = test system: PAO1 mutant MIN32_1, mexR(R63H), pilB(N349K), PA0646(V316G); assay: MIC, Sensititre custom plate; assay type: cell-based; settings: Pseudomonas aeruginosa, PAO1, read-out: MIC, Sensititre
Experimental: as §4

[13] = test system: PAO1 mutant MIN4_RW01_1, pmrB(R429H); assay: MIC, Sensititre custom plate; assay type: cell-based; settings: Pseudomonas aeruginosa, PAO1, read-out: MIC, Sensititre
Experimental: as §4

[14] = test system: PAO1 mutant MIN4_RW01_3, pmrB(M292T); assay: MIC, Sensititre custom plate; assay type: cell-based; settings: Pseudomonas aeruginosa, PAO1, read-out: MIC, Sensititre
Experimental: as §4

[15] = test system: PAO1 mutant MIN4_RW01_4, pmrB(Y98N); assay: MIC, Sensititre custom plate; assay type: cell-based; settings: Pseudomonas aeruginosa, PAO1, read-out: MIC, Sensititre
Experimental: as §4

[16] = test system: PAO1 mutant MIN8_1, nalD(R3C), pilM(Q62X); assay: MIC, Sensititre custom plate; assay type: cell-based; settings: Pseudomonas aeruginosa, PAO1, read-out: MIC, Sensititre
Experimental: as §4

[17] = test system: PAO1 mutant MIN8_2, pilZ(nt18InsT); assay: MIC, Sensititre custom plate; assay type: cell-based; settings: Pseudomonas aeruginosa, PAO1, read-out: MIC, Sensititre
Experimental: as §4

[18] = test system: PAO1 mutant MIN8_3, pilZ(nt18InsT); assay: MIC, Sensititre custom plate; assay type: cell-based; settings: Pseudomonas aeruginosa, PAO1, read-out: MIC, Sensititre
Experimental: as §4

[19] = test system: PAO1 mutant MIN8_4, pilZ(nt18InsT); assay: MIC, Sensititre custom plate; assay type: cell-based; settings: Pseudomonas aeruginosa, PAO1, read-out: MIC, Sensititre
Experimental: as §4

[20] = test system: PAO1 mutant MIN1_RW01_4, pmrB(F124L); assay: microbe, parasite or virus in culture; assay type: cell-based; settings: Pseudomonas aeruginosa, PAO1, read-out: MIC, Sensititre
Experimental: as §4

[21] = test system: PAO1 mutant MIN4_RW01_2, pmrB(F124S); assay: microbe, parasite or virus in culture; assay type: cell-based; settings: Pseudomonas aeruginosa, PAO1, read-out: MIC, Sensititre
Experimental: as §4

[22] = antibiotic MIC alone vs with RW01 100 mg/L

Structure (SMILES) | MIC (P. aeruginosa 125A) | MIC (P. aeruginosa 125B) | MIC (P. aeruginosa 41A) | MIC (P. aeruginosa 41B) | MIC (P. aeruginosa PAO1) | MIC (P. aeruginosa PAOUW) | MIC (P. aeruginosa PAOUW∆oprF) | MIC (P. aeruginosa PAOΔmexR) | MIC (P. aeruginosa PAOΔmexZ) | MIC (P. aeruginosa PAOΔoprM) | MIC [3] | MIC [4] | MIC [6] | MIC [10] | MIC [11] | MIC [12] | MIC [13] | MIC [18] | MIC [19] | also measured
CCN[C@@H]1C[C@H](N)[C@@H](O[C@H]2OC(CN)=CC[C@H]2N)[C@H](O)[C@H]1O[C@H]1OC[C@](C)(O)[C@H](NC)[C@H]1O [Netilmicin, netilmicin] | 8 µg/mL | 8 µg/mL | 8 µg/mL | 8 µg/mL | 8 µg/mL | 2 µg/mL | 8 µg/mL | 8 µg/mL | 8 µg/mL | 1 µg/mL |  |  |  |  |  |  |  |  |  | 
NCC[C@H](O)C(=O)N[C@@H]1C[C@H](N)[C@@H](O[C@H]2O[C@H](CN)[C@@H](O)[C@H](O)[C@H]2O)[C@H](O)[C@H]1O[C@H]1O[C@H](CO)[C@@H](O)[C@H](N)[C@H]1O [AMI, amikacin] |  |  |  |  |  |  |  |  |  |  | ≤ 2 µg/mL | ≤ 2 µg/mL | ≤ 2 µg/mL | 8 µg/mL (≈ 13.7 µM) | 4 µg/mL (≈ 6.83 µM) | ≤ 2 µg/mL | 2 to 4 µg/mL (≈ 3.42 to 6.83 µM) | ≤ 2 µg/mL | ≤ 2 µg/mL | MIC (P. aeruginosa PAO1, WT): ≤ 2 µg/mL; MIC [1]: 4 µg/mL (≈ 6.83 µM); MIC [2]: ≤ 2 µg/mL; MIC [5]: 4 µg/mL (≈ 6.83 µM); MIC [7]: 4 µg/mL (≈ 6.83 µM); MIC [8]: 4 µg/mL (≈ 6.83 µM); MIC [9]: 4 µg/mL (≈ 6.83 µM); MIC [14]: 4 µg/mL (≈ 6.83 µM); MIC [15]: 4 µg/mL (≈ 6.83 µM); MIC [16]: ≤ 2 µg/mL; MIC [17]: ≤ 2 µg/mL; MIC [20]: ≤ 2 µg/mL; MIC [21]: 4 µg/mL (≈ 6.83 µM)
O=C(N[C@H](CO)[C@H](O)c1ccc([N+](=O)[O-])cc1)C(Cl)Cl [Chloramphenicol, chloramphenicol] | 128 µg/mL | 64 µg/mL | 128 µg/mL | 128 µg/mL | 32 µg/mL | > 512 µg/mL | 32 µg/mL | 32 µg/mL | 32 µg/mL | 4 µg/mL |  |  |  |  |  |  |  |  |  | Potentiation (fold) (P. aeruginosa 125A; [22]): ≥ 8 fold; Potentiation (fold) (P. aeruginosa 125B; [22]): ≥ 8 fold
O=C(O)c1cn(C2CC2)c2cc(N3CCNCC3)c(F)cc2c1=O [CIP, ciprofloxacin] |  |  |  |  |  |  |  |  |  |  | 4 µg/mL (≈ 12.1 µM) | 0.5 µg/mL (≈ 1.51 µM) | 0.5 µg/mL (≈ 1.51 µM) | 0.5 µg/mL (≈ 1.51 µM) | 0.5 to 1 µg/mL (≈ 1.51 to 3.02 µM) | 0.5 µg/mL (≈ 1.51 µM) | 0.5 µg/mL (≈ 1.51 µM) | 0.5 µg/mL (≈ 1.51 µM) | 0.5 µg/mL (≈ 1.51 µM) | 
